Earlier results in EP3763715A1, “HARRINGTONINES SALTS, IN PARTICULAR RETINOATES, THEIR PROCESS OF PREPARATION AND THEIR USES IN THE TREATMENT OF LEUKEMIAS, CANCERS, AUTOIMMUNE, SKIN, ALZHEIMER'S AND INFLAMMATORY BOWEL DISEASES AND VIRAL INFECTIONS, COMBINED WITH MYELOPOIESIS STIMULATING AGENTS” (Robin, Jean-Pierre, priority 2019, dated 2021).

Test system: multidrug-resistant cell lines
Conditions: greater than that of HHT; cited from earlier work

## C/C=C/C=C/COC(=O)C[C@](O)(CCCC(C)(C)O)C(=O)O[C@@H]1C(OC)=C[C@]23CCCN2CCc2cc4c(cc2[C@H]13)OCO4 [OP5215]
  antileukemic activity: 5 times
